Measurements: PMC10099809, “Valorization of Adhatoda vasica leaves: Extraction, in vitro analyses and in silico approaches” (Frontiers in Nutrition, 2023)
In brackets after ≈: the same amount, converted by molar mass.

Legend:
[1] = Hydroxyl radical scavenging assay; settings: for Hydroxyl radical scavenging % inhibition: range, up to 100 μg/ml
Procedure: (§1) The anti-oxidant activity of vasicine was evaluated with ABTS [2,2′-azino-bis (3-ethylbenzothiazoline-6-sulfonic acid)] activity ([20]), ferric reducing power (FRAP) assay, DPPH radical scavenging activity, hydroxyl radical scavenging activity ([21]–[24]), and hydrogen peroxide assay ([25]).

[2] = DPPH radical scavenging activity; settings: for DPPH % inhibition: at 100 μg/ml
Procedure: as §1

proteinase = experiment: Proteinase inhibitory activity; assay type: biochemical
Description: (§2) The anti-inflammatory activity of vasicine was investigated with lipooxygenase (LOX) inhibition assay ([26]), bovine serum albumin (BSA) method ([27]), egg albumin method ([28], [29]), and protein inhibitory action ([30]).

egg albumin = biological target: T1, egg albumin (Gallus gallus, UniProt P01012); experiment: Egg albumin method (albumin denaturation); assay type: biochemical; settings: for Inhibition of albumin denaturation: concentration range 10 to 100 μg/ml
T1 sequence (P01012 1-386): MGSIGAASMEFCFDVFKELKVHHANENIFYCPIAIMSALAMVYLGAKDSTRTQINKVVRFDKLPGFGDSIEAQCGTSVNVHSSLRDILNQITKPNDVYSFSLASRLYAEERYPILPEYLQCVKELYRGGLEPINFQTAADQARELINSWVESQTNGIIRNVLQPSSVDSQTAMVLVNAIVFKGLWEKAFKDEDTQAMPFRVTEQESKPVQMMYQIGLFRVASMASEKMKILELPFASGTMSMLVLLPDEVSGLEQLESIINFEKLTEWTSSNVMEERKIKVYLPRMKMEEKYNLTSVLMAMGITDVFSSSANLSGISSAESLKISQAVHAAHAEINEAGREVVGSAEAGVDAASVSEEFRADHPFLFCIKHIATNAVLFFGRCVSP
Description: as §2

lipooxygenase (LOX) = experiment: Lipooxygenase inhibition assay; assay type: biochemical
Description: as §2

[3] = biological target: bovine serum albumin (BSA) (Bos taurus, UniProt P02769); experiment: BSA method (albumin denaturation); assay type: biochemical
Chain of bovine serum albumin (BSA) (P02769 25-607): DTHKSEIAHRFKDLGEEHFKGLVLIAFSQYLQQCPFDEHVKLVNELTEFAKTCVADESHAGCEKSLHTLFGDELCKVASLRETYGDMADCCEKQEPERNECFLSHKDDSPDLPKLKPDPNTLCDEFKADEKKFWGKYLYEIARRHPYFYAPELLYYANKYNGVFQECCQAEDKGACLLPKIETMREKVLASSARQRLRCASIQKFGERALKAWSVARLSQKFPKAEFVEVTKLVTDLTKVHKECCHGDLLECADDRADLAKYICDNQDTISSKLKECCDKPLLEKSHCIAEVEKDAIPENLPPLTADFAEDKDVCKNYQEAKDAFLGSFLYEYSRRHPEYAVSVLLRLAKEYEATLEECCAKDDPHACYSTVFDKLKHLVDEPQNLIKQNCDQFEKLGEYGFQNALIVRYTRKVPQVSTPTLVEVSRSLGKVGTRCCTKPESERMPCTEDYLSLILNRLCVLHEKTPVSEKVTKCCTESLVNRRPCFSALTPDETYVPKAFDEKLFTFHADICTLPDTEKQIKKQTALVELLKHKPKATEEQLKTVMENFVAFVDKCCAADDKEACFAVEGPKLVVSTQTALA
Description: as §2

ABTS scavenging activity = experiment: ABTS scavenging activity
Procedure: as §1

lung carcinoma (A545) = experiment: Anticancer activity, direct microscopic observation and MTT assay; assay type: cell-based
Procedure: (§3) The anticancer activity of vasicine for the potential treatment of lung carcinoma (A545) was evaluated in a multi-step process. Cytotoxicity of vasicine was investigated by cytotoxicity evaluation (human fibroblast cell line, C0135C) ([39], [40]), direct microscopic observation ([41]), and MTT assay ([42]).

α-amylase = α-amylase inhibition assay; assay type: biochemical
Procedure: (§4) The antidiabetic activity of vasicine was evaluated with in vitro enzymatic assays using α-amylase and α-glucosidase ([31]–[36]). The non-enzymatic glycosylation of hemoglobin assay was also carried out ([37]).

[4] = tested on: human fibroblast cell line, C0135C; experiment: Cytotoxicity evaluation, MTT assay; assay type: cell-based; settings: cell viability
Procedure: as §3

Hydrogen peroxide assay = experiment: Hydrogen peroxide assay
Procedure: as §1

hemoglobin = hemoglobin (Homo sapiens, UniProt P68871+P69905); experiment: Non-enzymatic glycosylation of hemoglobin assay; assay type: biochemical; settings: incubation of hemoglobin with glucose for 72 h; in comparison to the standard drug
Chain of hemoglobin (P69905 2-142 limits assumed): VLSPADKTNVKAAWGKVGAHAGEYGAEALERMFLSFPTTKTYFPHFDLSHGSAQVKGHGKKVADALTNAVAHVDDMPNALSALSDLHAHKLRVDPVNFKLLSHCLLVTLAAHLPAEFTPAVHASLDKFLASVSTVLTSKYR
Chain of hemoglobin (P68871 2-147 limits assumed): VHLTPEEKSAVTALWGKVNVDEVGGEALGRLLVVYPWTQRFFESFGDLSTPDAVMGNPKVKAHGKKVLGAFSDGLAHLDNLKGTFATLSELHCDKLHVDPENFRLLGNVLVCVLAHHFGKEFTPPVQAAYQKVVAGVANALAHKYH
Procedure: as §4

Bacillus badius = experiment: Antibacterial colony forming units (CFU) assay; assay type: cell-based; settings: increasing concentration of purified vasicine
Procedure: (§5) Antibacterial assay was carried outby colony forming units (CFU) assay using anaerobic and facultative oral bacteria ([17]). Two different bacterial strains (Escherichia coli and Bacillus badius) were collected from NCCS, Pune. […] The broth were kept in incubator at 37°C for 24 h. Two strains of Bacteria were grown in MH broth to an OD600nm of 0.5. 2 μLaliquot of the bacteria and 5 ml of fresh MH broth (contains various concentration of vasicine) was added ([19]). The log10 reduction in CFU/ml was determined.

Escherichia coli = experiment: Antibacterial colony forming units (CFU) assay; assay type: cell-based; settings: E. coli; increasing concentration of purified vasicine
Procedure: as §5

[5] = Ferric reducing antioxidant power (FRAP) assay
Procedure: as §1

[6] = tested on: serum alkaline phosphatase; parameters: method as in Srinivasarao et al. ([60]); settings: Swiss albino mice treated with vasicine; ref Srinivasarao et al. ([60]); cited from earlier work

SMILES: O=C1O[C@H]([C@@H](O)CO)C(O)=C1O [ascorbic acid, reference compound]
- Hydroxyl radical scavenging % inhibition [1]: 15–86%
- DPPH % inhibition [2]: 96%

SMILES: CC(=O)Oc1ccccc1C(=O)O [aspirin, reference compound]
- Proteinase % inhibition (proteinase; standard): 79%

SMILES: O=C(O)Cc1ccccc1Nc1c(Cl)cccc1Cl [diclofenac sodium, reference compound]
- Inhibition of albumin denaturation (egg albumin): 89%
- Lipooxygenase % inhibition (lipooxygenase (LOX); at 100 μg/ml): 82%

SMILES: O[C@H]1CCN2Cc3ccccc3N=C12 [vasicine]
- IC50 [3]: 275 µM
- BSA method maximum percentage of inhibition ([3]; maximum): 82%
- ABTS scavenging IC50 (ABTS scavenging activity): 11.5 µg/mL
- inhibition at 100 µg/mL (lung carcinoma (A545); A545, read-out: Growth inhibition of lung cancer cell line): 30.1%
- Inhibition of cell growth, lung cancer cell line (lung carcinoma (A545); discussion statement, concentration not given): More than 50%
- Proteinase inhibitory IC50 (proteinase): 76 µg/mL
- α-amylase inhibition IC50 (α-amylase): 47.6 µg/mL
- Hydroxyl radical scavenging IC50 [1]: 22 µg/mL
- Hydroxyl radical scavenging % inhibition [1]: 12–69%
- IC50 [4]: 82.5 µg/mL (≈ 438 µM)
- IC50 (egg albumin): 283 µM
- Inhibition of albumin denaturation (egg albumin): 81%
- Lipooxygenase IC50 (lipooxygenase (LOX)): 76 µg/mL
- Lipooxygenase maximum percentage inhibition (lipooxygenase (LOX); maximum): 83%
- DPPH radical scavenging IC50 [2]: 18.2 µg/mL
- DPPH % inhibition [2]: 81%
- Hydrogen peroxide assay IC50 (Hydrogen peroxide assay): 27.8 µg/mL
- Inhibitory activity against hydrogen peroxide (Hydrogen peroxide assay; 10–100 μg): 9–59%
- Inhibition of hemoglobin glycosylation (hemoglobin): substantially inhibits hemoglobin glycosylation
- Number of colonies (CFU assay) (Bacillus badius): number of colonies reduced
- Number of colonies (CFU assay) (Escherichia coli): number of colonies reduced
- FRAP IC50 [5]: 15 µg/mL
- FRAP % inhibition ([5]; at 100 μg/ml): 62%
- Serum alkaline phosphatase [6]: increase in serum alkaline phosphatase
